The values below come from ChEMBL document CHEMBL1799994, “Synthesis and docking studies on styryl chromones exhibiting cytotoxicity in human breast cancer cell line” (Bioorg Med Chem Lett, 2010).

The subject of assay [1] is MCF7. Briefly: Cytotoxicity against human MCF7 cells expressing estrogen receptor after 24 hrs by MTT assay. Type of assay: functional, cell-based.
Assay [2] relates to MCF7. Briefly: Antiproliferative activity against human MCF7 cells expressing estrogen receptor after 24 hrs by MTT assay. Type of assay: functional, cell-based.

`CC(=O)OC1=C(/C=C/c2ccccc2)Oc2ccccc2C1=C(C#N)C#N`: the Activity entry with MCF7 [1] and in the assay with MCF7 [2] was “Dose-dependent effect” in each case.
